In brackets after ≈: the same amount, converted by molar mass. Like-named read-outs stand apart in the source and are kept apart here.
What was measured:
[1] = Kinetic solubility across pH (PBS pH 7.4, FaSSGF pH 1.6, FaSSIF pH 6.5); assay type: physicochemical; settings: kinetic from dmso stock
Method: Kinetic solubility method was used to determine the solubility of NCEs across pH ranges, PBS pH 7.4, FaSSGF pH 1.6 & FaSSIF pH 6.5.
Procedure • 1. Seven calibration standards (i.e. 1, 5, 10, 50, 100, 200 and 300 μM) were prepared in DMSO from the 20 mM primary stock solution. • 2. Dispensed an aliquot of 198 IL of 0.001 M PBS into duplicate wells of a multiscreen solubility filter plate. • 3. Subsequently, added 2 μL of test compound solution (20 mM primary stock solution), cover the plate and shake at 150 rotations per minute for 90 minutes. • 4. At the end of 90 minutes, samples were filtered using MultiScreen HTS vacuum Manifold assembly and the filtrate was collected into the acceptor plate. • 5. An aliquot of 150 μL of filtrate from the above 96-well acceptor plate was transferred into HIPLC vials and analyzed by HIPLC-UV.

[2] = Buffer stability in phosphate buffered saline; assay type: physicochemical; settings: PBS pH 7.4, 3 μM, 37° C.
Method: Assay Procedure: • 1. Test compound was prepared at 3 mM in DMSO from 10 mM working stock. • 2. The experiment was conducted in Phosphate buffered saline with a final concentration of 3 μM. • 3. The vials were incubated at 37° C. in a hybridization oven for respective time points. • 4. After incubation time, equal volumes of quenching solution was added. • 5. Samples were centrifuged at 14,000 rpm for 5 min at 4° C. • 6. Supernatant was transferred into vials and analyzed in HIPLC.

Plasma stability = assay type: in vitro ADME; settings: 3 μM, 37° C.
Method: Stability of drug assessed in plasma to determine the percent remaining and half-life of the compound.
Assay Procedure: • 1. Fresh blood was collected in tubes containing anticoagulant (K2 EDTA) and the plasma collected by centrifugation. • 2. 3 mM of the test compound was prepared in DMSO from 20 mM main stock. • 3. 1 μL of test compound (3 mM) was incubated at 37° C. in 999 μL of plasma (3 μM final concentrations, 0.1% DMSO, final volume 1,000 μL). • 4. The reactions were terminated at 0, 30, 60 and 120 min by addition of two volumes of acetonitrile, containing IS (200 ng/mL) resulting in protein precipitation. • 5. After termination of reaction at individual time points, the samples were stored at −80±10° C. till the completion of experiment. • 6. On completion of last incubation point, all the samples were centrifuge at 14,000 rpm for 10 min. • 7. Supernatant (200 μL) from each reaction tube was taken for LC-MS/MS analysis.

[3] = Blood partitioning (blood to plasma ratio); assay type: in vitro ADME; settings: fresh pooled whole blood, fresh mouse blood, 37° C., read-out: Mice blood to plasma ratio
Method: Blood to plasma ratio defines the concentration of a drug in whole blood (that is, target drug containing both erythrocytes and plasma) to the concentration of target drug in plasma. The red blood cell partition coefficient is the ratio of the concentration of drug in the red blood cells (that is, not including plasma) to concentration of drug in plasma.
Assay Procedure: • 1. Fresh blood was collected. • 2. An aliquot of 50 μL blood was taken from individual tubes and centrifuged to check for any haemolysis. Tube with haemolysed blood was not considered for experiment. • 3. Non-haemolysed blood in individual tubes was pooled and incubated at 37° C. • 4. 999 μL aliquot of pooled blood was taken in individual tubes. One of these tubes was designated for Chloroquine (positive control). Incubations for the test compound were similarly done in other aliquot. • 5. 1 μL of test compound (0.1% DMSO concentration) or positive control solution was spiked into each of the above tubes. • 6. Above tubes were incubated at 37° C. for 30 min. • 7. Post incubation, an aliquot (˜50 μL) was taken and centrifuged to check for haemolysis. • 8. Subsequently, 100 μL of blood sample from the incubation mixture tube was transferred into a separate labeled tube and quenched with 200 μL of Acetonitrile containing Internal standard. • 9. […]

MiaPaCa-2 cells = test: Cytotoxicity assay, cell proliferation (Alamar Blue); assay type: cell-based; settings: Homo sapiens, MIA PaCa-2, 72 h
Method: (§1) Cell Culture Protocol:— 1) Protocol for Reviving Cell Line(s) • 1. Take out the cell vials from LN2 container & thaw immediately at 37° C. • 2. Wipe it with 70% alcohol properly • 3. Transfer to sterile centrifuge tubes containing 9 ml media & spin at 1000 rpm for 5 min. • 4. Discard the supernatant & resuspend the pellet in 2-3 ml media and transfer to T-75 or T-150 culture flasks containing 15 or 30 ml media respectively. • 5. Incubate at 37° C.-5% CO2. 2) Protocol for Sub-Culturing Cell Line(s)
(§2) Cells should be sub-cultured when they reach 70-80% confluence. • 1. Discard the media from cell culture flask. • 2. Add 3 to 4 ml of TrypLE Express dissociation solution; keep in CO2 incubator for ˜5 min. Mix gently to avoid cell clumping. • 3. Add 4.0 to 5.0 ml of complete growth medium and mix gently & transfer to centrifuge tube. • 4. Centrifuge at 1000 rpm for 5 min. • 5. Discard the supernatant & re-suspend the pellet in 3-4 ml of media. • 6. Count the cells in cell counter or using hemocytometer. • 7. Split the cells in 1:2 or 1:4 ratio into new culture flasks. • 8. Incubate cultures at 37° C.-5% CO2 to get confluence 3) Protocol for Preserving Cell Line(s) • 1. Discard the spent media from the TC flask. • 2. Add 3 to 4 ml of TrypLE Express dissociation solution; keep in CO2 incubator for ˜5 min. Mix gently to avoid cell clumping. • 3. Add 4.0 to 5.0 ml of complete growth medium and mix gently & transfer to centrifuge tube. • 4. Centrifuge at 1000 rpm for 5 min. • 5. Discard the supernatant & re-suspend the pellet in 3-4 ml of media. • 6. Count the cells in cell counter or using hemocytometer. • 7. Spin at 1000 rpm for 5 min, discard the supernatant and re-suspend the pellet in 900 μl of media+100 μl of DMSO (Freeze app. 1.5 to 3 million cells/vial). • 8. Keep the vials in −80° C. overnight & transfer to LN2 container. Cell Proliferation (Alamar Blue) Assay:— • Seed cells at 2000 cells in 100 μL/well in 96-well tissue culture plate. Leave outer wells without cells for background measurements. Incubate at 37° C./5% CO2 for 16-18 hours. • Add 10× concentration compound dilution or DMSO control so that the final concentration is 1× and DMSO concentration 0.5%. Compound is prepared in 3-fold serial dilutions. Incubate for 72 h at 37° C./5% CO2. • Add Alamar Blue™ reagent to each well with multi-channel pipette and tap gently on each side of the plate to mix. Incubate for 3 hours at 37° C./5% CO2. • Read plates on fluorescence reader (Tecan i-control, 1.11.1.0, Device: infinite 200, Serial number: 810001990) at 540 nm excitation, 590 nm emission wavelength. • Data analysis using Graph pad prism Assay Acceptance Criteria • S/N Ratio should be >3. • Z′ should be >0.4

DLD-1 cells = test: as above; assay type: cell-based; settings: Homo sapiens, 72 h
Method: (§3) Media Preparation Protocol:— • Media composition for cell preservation (4 ml): 900 μl of Hi-FBS+[…] of DMSO Complete Media Preparation (500 ml): For DLD1n& A375:
as §1, §2

A375 cells = test: as above; assay type: cell-based; settings: Homo sapiens, A-375, 72 h
Method: as §3, §1, §2

[4] = average of N1 and N2, read-out: Average pIC50 (n = 2) (converted)
[5] = replicate N1, read-out: IC50 N1
[6] = replicate N1, read-out: pIC50 N1 (converted)
[7] = replicate N2, read-out: IC50 N2
[8] = replicate N2, read-out: pIC50 N2 (converted)

COc1ccc2nc3cc(Cl)ccc3c(NCCOCCN(C)CCOCCNc3c4ccc(Cl)cc4nc4ccc(OC)cc34)c2c1 [Dioxo-DQ-551]
solubility at 90 min ([1]; aqueous buffer, PBS pH 7.4, 90 minutes shaking, read-out: PBS pH 7.4 solubility): 39 µM (≈ 26.9 µg/mL) | solubility at 90 min ([1]; fassgf or other biorelevant, FaSSGF pH 1.6, 90 minutes shaking, read-out: FaSSGF pH 1.6 solubility): ~200 µM (≈ 138 µg/mL) | solubility at 90 min ([1]; FaSSIF pH 6.5, 90 minutes shaking, read-out: FaSSIF pH 6.5 solubility): 62 µM (≈ 42.7 µg/mL) | PBS pH 7.4 stability (% remaining @120 min) [2]: 100% | Mouse plasma stability (% remaining @ 120 min) (Plasma stability): 88% | blood plasma ratio at 30 min [3]: 12.6 | IC50 (MiaPaCa-2 cells; [4]): 174 nM | IC50 (MiaPaCa-2 cells; [5]): 150 nM | IC50 (MiaPaCa-2 cells; [6]): 151 nM | IC50 (MiaPaCa-2 cells; [7]): 210 nM | IC50 (MiaPaCa-2 cells; [8]): 204 nM | IC50 (DLD-1 cells; [4]): 708 nM | IC50 (DLD-1 cells; [5]): 330 nM | IC50 (DLD-1 cells; [6]): 324 nM | IC50 (DLD-1 cells; [7]): 1560 nM | IC50 (DLD-1 cells; [8]): 1550 nM | IC50 (A375 cells; [4]): 794 nM | IC50 (A375 cells; [5]): 440 nM | IC50 (A375 cells; [6]): 447 nM | IC50 (A375 cells; [7]): 1450 nM | IC50 (A375 cells; [8]): 1450 nM

CCN(CC)CCCC(C)Nc1c2ccc(Cl)cc2nc2ccc(OC)cc12 (stereo not drawn) [Quinacrine]
IC50 (MiaPaCa-2 cells; [4]): 2510 nM | IC50 (MiaPaCa-2 cells; [5]): 2680 nM | IC50 (MiaPaCa-2 cells; [6]): 2690 nM | IC50 (MiaPaCa-2 cells; [7]): 2340 nM | IC50 (MiaPaCa-2 cells; [8]): 2340 nM | IC50 (DLD-1 cells; [4]): 4370 nM | IC50 (DLD-1 cells; [5]): 2520 nM | IC50 (DLD-1 cells; [6]): 2510 nM | IC50 (DLD-1 cells; [7]): 7540 nM | IC50 (DLD-1 cells; [8]): 7590 nM | IC50 (A375 cells; [4]): 2240 nM | IC50 (A375 cells; [5]): 1280 nM | IC50 (A375 cells; [6]): 1290 nM | IC50 (A375 cells; [7]): 3840 nM | IC50 (A375 cells; [8]): 3800 nM

COc1cccc2c1C(=O)c1c(O)c3c(c(O)c1C2=O)C[C@@](O)(C(=O)CO)C[C@@H]3O[C@H]1C[C@H](N)[C@H](O)[C@H](C)O1 [Doxorubicin]
IC50 (MiaPaCa-2 cells; [4]): 89.1 nM | IC50 (MiaPaCa-2 cells; [5]): 100 nM | IC50 (MiaPaCa-2 cells; [6]): 97.7 nM | IC50 (MiaPaCa-2 cells; [7]): 80 nM | IC50 (MiaPaCa-2 cells; [8]): 81.3 nM | IC50 (DLD-1 cells; [4]): 380 nM | IC50 (DLD-1 cells; [5]): 250 nM | IC50 (DLD-1 cells; [6]): 245 nM | IC50 (DLD-1 cells; [7]): 590 nM | IC50 (DLD-1 cells; [8]): 589 nM | IC50 (A375 cells; [4]): 28.2 nM | IC50 (A375 cells; [5]): 20 nM | IC50 (A375 cells; [6]): 24.5 nM | IC50 (A375 cells; [7]): 30 nM | IC50 (A375 cells; [8]): 31.6 nM
